Measured values taken from publication PMC6287543 (International Journal for Parasitology: Drugs and Drug …, 2018).
Values joined by “and” are separate entries in the source; they are usually repeats but may differ in a detail not shown here. Identical values can stand only once. “Also recorded” adds a separate entry of the source.

Columns and labels:
[1] = oral 60 mg/BID over 24 weeks; ref Kim et al., 2017; cited from earlier work
S. mansoni = assay: Murine model of S. mansoni infection: worm burdens recovered by perfusion; type: in vivo, Schistosoma mansoni; conditions: mice; for reduction in female worm burden / reduction in male worm burden: 42 dpi

Row | Compound | tolerability [1] | efficacy against 21-day-old juvenile parasites (S. mansoni; 100 mg/kg PO QDx4 from 21 dpi, 100 mg/kg) | reduction in female worm burden (S. mansoni; single oral 200 mg/kg) [%] | reduction in male worm burden (S. mansoni; single oral 200 mg/kg) [%] | reduction in female worm burden (S. mansoni; single oral 400 mg/kg) [%] | reduction in male worm burden (S. mansoni; single oral 400 mg/kg, 400 mg/kg) | worm kill, juvenile 21 day-old parasites (S. mansoni; single oral doses)
1 | Cc1c(-c2cnccn2)ssc1=S [Oltipraz] | well-tolerated | – | – | – | – | – | –
2 | O=C(C1CCCCC1)N1CC(=O)N2CCc3ccccc3C2C1 (stereo not shown) [PZQ, praziquantel] | – | ineffective; also recorded: essentially inactive | 97 | 78 | 100 | 100% and 97% | zero kill
